Key:
[1] = biological target: T1, mPTPB (Mycobacterium tuberculosis, UniProt I6WXK4); assay type: biochemical
T1 sequence (I6WXK4 1-276): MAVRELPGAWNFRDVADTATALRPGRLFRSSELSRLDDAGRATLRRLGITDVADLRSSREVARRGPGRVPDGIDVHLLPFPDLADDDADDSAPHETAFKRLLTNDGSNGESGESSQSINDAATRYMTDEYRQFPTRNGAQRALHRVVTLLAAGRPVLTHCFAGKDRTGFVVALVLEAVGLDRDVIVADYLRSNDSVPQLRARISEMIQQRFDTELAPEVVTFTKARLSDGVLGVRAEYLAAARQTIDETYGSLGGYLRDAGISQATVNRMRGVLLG

[2] = biological target: T2, TC-PTP (Homo sapiens, UniProt P17706); assay: PTP selectivity pNPP assay, TC-PTP; assay type: biochemical, mammalian
T2 sequence (P17706 1-415): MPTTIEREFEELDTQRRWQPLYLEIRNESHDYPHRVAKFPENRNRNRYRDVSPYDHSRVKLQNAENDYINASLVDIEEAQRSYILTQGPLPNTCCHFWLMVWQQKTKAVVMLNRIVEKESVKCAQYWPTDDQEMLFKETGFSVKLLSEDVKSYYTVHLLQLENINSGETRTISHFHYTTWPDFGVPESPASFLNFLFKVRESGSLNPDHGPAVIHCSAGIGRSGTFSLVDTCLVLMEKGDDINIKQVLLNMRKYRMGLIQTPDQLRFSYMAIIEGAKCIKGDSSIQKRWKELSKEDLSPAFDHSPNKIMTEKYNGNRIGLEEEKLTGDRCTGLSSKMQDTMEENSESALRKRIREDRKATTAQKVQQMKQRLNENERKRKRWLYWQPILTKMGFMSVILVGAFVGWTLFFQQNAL

For `O=C(O)c1cc2c(C#Cc3cc(F)cc(F)c3)c(-c3ccccc3)oc2cc1O` [Compound 4f, 3-((3,5-difluorophenyl)ethynyl)-6-hydroxy-2-phenylbenzofuran-5-carboxylic acid], the “decrease in IC50 for mPTPB compared to 4b” value [1] was 3.3 fold.
In the case of `O=C(O)c1cc2c(C#Cc3ccc(F)cc3F)c(-c3ccccc3)oc2cc1O` [Compound 4e, 3-((2,4-difluorophenyl)ethynyl)-6-hydroxy-2-phenylbenzofuran-5-carboxylic acid], the IC50 [2] is reported as 9 ± 0.5 µM.
For `O=C(O)c1cc2c(C#Cc3cccc(C(F)(F)F)c3)c(-c3ccccc3)oc2cc1O` [Compound 4g, 6-hydroxy-2-phenyl-3-((3-(trifluoromethyl)phenyl)ethynyl)benzofuran-5-carboxylic acid], the “mode of mPTPB inhibition” value [1] was “reversible and noncompetitive”.

Reference: PMC3574584 (Journal of medicinal chemistry, 2013)
